Assay results: US12059422B2 (MEI Pharma, Inc., priority 2011, dated 2024)

Columns and labels:
PI3K alpha = target: T1, PI3K alpha (Homo sapiens, UniProt P42336); experiment: Luciferase-based luminescence assay (KinaseGlo), PI3K alpha enzymatic activity; assay type: biochemical; settings: inhibition of enzymatic activity, 25 μM ATP, read-out: IC50 p110α
T1 construct: purchased Invitrogen Corp., Carlsbad, CA, USA
Procedure: (§1) PI3K catalyzes the conversion of phosphatidylinositol-4,5-bisphosphate (PIP2) and ATP to phosphatidylinositol-3,4,5-trisphosphate (PIP3) and ADP. For all assays, the reaction buffer comprised 50 mM HEPES, pH 7.5, 3 mM MgCl2, 1 mM EGTA, 100 mM NaCl, 0.03% CHAPS and 2 mM DTT. Compounds for testing were dissolved and serially diluted in 100% DMSO (total of 10 concentrations), then diluted 1:25 in reaction buffer.
(§2) PI3K alpha and PI3K delta enzymatic activity was determined by measuring the amount of ATP consumed following the kinase reaction using a luciferase-based luminescence assay (KinaseGlo®, Promega Corp., Madison, WI, USA). PI3K enzyme solutions were prepared by diluting PI3K alpha (Invitrogen Corp., Carlsbad, CA, USA) or PI3K delta (Millipore, Billerica, MA, USA) in reaction buffer, to 4× the final assay concentration (final concentrations of enzymes were 1.65 nM and 6.86 nM for PI3K alpha and PI3K delta, respectively). A substrate solution was prepared by mixing PIP2 and ATP in reaction buffer at 2× the final assay concentration (final concentrations were 50 μM and 25 μM for PIP2 and ATP respectively). 2.5 μL each of the compound and kinase mixtures were added to individual wells of white low volume 384-well assay plates and mixed by shaking. The reactions were started by adding 5 μL of substrate mixture per well and shaking. The assay plates were covered and reactions were allowed to proceed for 1 hour (PI3K alpha) or 2 hours (PI3K delta), after which 10 μL of Kinase Glo® reagent was added. The plates were briefly centrifuged and incubated for 10 minutes, after which luminescence was measured using a FlexStation plate reader (Molecular Devices, Sunnyvale, CA, USA). IC50 values were determined by curve fitting using Graphpad Prism software (Graphpad Software, La Jolla, CA, USA).

PI3K beta = target: T2, PI3K beta (Homo sapiens, UniProt P42338); experiment: Luciferase-based luminescence assay (ADP Glo), PI3K beta enzymatic activity; assay type: biochemical; settings: for IC50: inhibition of enzymatic activity, ADP Glo, 25 μM ATP, read-out: IC50 p110β; for α/β ratio: ratio of enzymatic IC50 values, Table 1
T2 construct: purchased Millipore, Billerica, MA, USA
Procedure: as §1
(§3) PI3K beta and gamma enzymatic activity was determined by measuring the amount of ADP produced following the kinase reaction using a luciferase-based luminescence assay (ADP Glo®, Promega Corp., Madison, WI, USA). PI3K enzyme solutions were prepared by diluting PI3K beta (Millipore, Billerica, MA, USA) or PI3K gamma (Invitrogen Corp., Carlsbad, CA, USA) in reaction buffer, to 4× the final assay concentration (final concentrations of enzymes were 4.8 nM and 7.6 nM for PI3K beta and PI3K gamma respectively). A substrate solution was prepared by mixing PIP2 and ATP in reaction buffer at 2× the final assay concentration (final concentrations were 50 μM and 25 μM for PIP2 and ATP respectively). 2.5 μL each of the compound and kinase mixtures were added to individual wells of white low volume 384-well assay plates and mixed by shaking. The reactions were started by adding 5 μL of substrate mixture per well and shaking. The assay plates were covered and reactions were allowed to proceed for 1 hour. Then, 5 μL of reaction mix was transferred to another white low volume 384-well plate, and 5 μL of ADP-Glo™ reagent was added. The plates were briefly centrifuged and incubated for 40 minutes, after which 10 μL of kinase detection buffer was added. The plates then were centrifuged briefly, shaken slowly and equilibrated at room temperature for 30 minutes, after which luminescence was measured using a FlexStation plate reader (Molecular Devices, Sunnyvale, CA, USA). IC50 values were determined by curve fitting using Graphpad Prism software (Graphpad Software, La Jolla, CA, USA).

PI3Kδ = target: T3, PI3Kδ (Homo sapiens, UniProt O00329); experiment: ELISA assay for PI3Kδ: sandwich ELISA, phosphorylation of AKT (Thr308) in Raji cells; assay type: cell-based; settings: cellular, pAKT (Thr308), Raji cells, anti-Human IgM stimulation; read-out: IC50 p110δ
T3 construct: endogenous in cells; host or cells: Raji (ATCC #CCL-86)
Procedure: Cellular PI3Kδ activity was determined by measuring the phosphorylation of AKT (Thr308) using a sandwich enzyme-linked immunosorbant assay (ELISA). Raji (Burkitt's Lymphoma) cells were obtained from ATCC (ATCC #CCL-86). Phosphate buffer saline (PBS) contained 2.7 M NaCl, 54 mM KCl, 86 mM […] (dibasic, anhydrous), and 28 mM […] (monobasic, anhydrous) at pH 7.2. Wash buffer contained PBS supplemented with 0.05% Tween-20. Blocking buffer contained wash buffer supplemented with 1% BSA. A 10× stimulation mixture contained 5 μg/mL anti-Human IgM antibody (Sigma #12386) diluted in serum-free RPMI medium (CellGro #CV-10-040-CV). Compounds for testing were dissolved and serially diluted in 100% DMSO (total of 10 concentrations), and then diluted in serum-free RPMI to 5×final assay concentration.
Raji cells were subcultured in RPMI medium supplemented with 10% fetal bovine serum, 100 IU/mL penicillin, 100 μg/mL streptomycin, and 1×MEM non-essential amino acids. Sandwich ELISA plates were prepared by coating 96-well assay plates (Pierce #15042) with 100 μL/well capture antibody (Cell Signaling Technology #7142 or 7144) diluted in PBS. Plates were incubated overnight at 4° C., then washed with wash buffer, after which 200 μL/well blocking buffer was added to the plates and incubated at room temperature for at least 2 hrs. Raji cells were resuspended in serum-free RPMI medium and seeded into V-bottom, 2-mL 96-well blocks (Corning #3961) at 10^6 cells/well, then incubated for 2 hrs in a 37° C., 5% CO2 incubator. Compound treatment was performed by adding the 5× compound mixture to the cells and incubating for 2 hrs at 37° C., 5% CO2, after which the 10× stimulation mixture was added to the plates and incubated for 30 min at 37° C., 5% CO2. Cells were pelleted by centrifuging plates at 1500 RPM for 5 min at room temperature. Media was carefully removed and cells were lysed by adding 100 μL/well cell lysis buffer (Cell Signaling Technology #9803) supplemented with protease and phosphatase inhibitors (Thermo Fisher #78443). Plates were incubated on ice for 30 min, then the lysates (80 μL for pAKT^T308, 10 μL for total AKT) were transferred to prepared assay plates and incubated at 4° C. overnight. After washing plates with wash buffer, 100 μL/well detection antibody (Cell Signaling Technology #7142 or 7144) diluted in blocking buffer was added to the plates and incubated for 1 hr at 37° C. Plates were washed and 100 μL/well of HRP-conjugated secondary antibody (Cell Signaling Technology #7142 or 7144) diluted in blocking buffer was added to plates and incubated for 1 hr at room temperature. Plates were washed with wash buffer and 100 μL/well of luminescent substrate was added to plates. After 1 min on a plate shaker at medium speed, luminescence was read on a Wallac Victor2 plate reader. IC50 values were determined by curve fitting using a Collaborative Drug Discovery database (www.collaborativedrug.com).

PI3K delta = target: T4, PI3K delta (Homo sapiens, UniProt O00329); experiment: Luciferase-based luminescence assay (KinaseGlo), PI3K delta enzymatic activity; assay type: biochemical; settings: for IC50: inhibition of enzymatic activity, KinaseGlo, 25 μM ATP, read-out: IC50 p110δ; for α/δ ratio: ratio of enzymatic IC50 against PI3Kα over IC50 against PI3Kδ; for β/δ ratio / γ/δ ratio: ratio of enzymatic IC50 values, Table 1
T4 construct: purchased Millipore, Billerica, MA, USA
Procedure: as §1, §2

PI3K gamma = target: T5, PI3K gamma (Homo sapiens, UniProt P48736); experiment: Luciferase-based luminescence assay (ADP Glo), PI3K gamma enzymatic activity; assay type: biochemical; settings: inhibition of enzymatic activity, 25 μM ATP, read-out: IC50 p110γ
T5 construct: purchased Invitrogen Corp., Carlsbad, CA, USA
Procedure: as §1, §3

mTOR = mTOR (Homo sapiens, UniProt P42345); experiment: mTOR inhibition (Table 1); assay type: biochemical; settings: Table 1, no method described

T2 sequence (P42338 whole entry, species assumed): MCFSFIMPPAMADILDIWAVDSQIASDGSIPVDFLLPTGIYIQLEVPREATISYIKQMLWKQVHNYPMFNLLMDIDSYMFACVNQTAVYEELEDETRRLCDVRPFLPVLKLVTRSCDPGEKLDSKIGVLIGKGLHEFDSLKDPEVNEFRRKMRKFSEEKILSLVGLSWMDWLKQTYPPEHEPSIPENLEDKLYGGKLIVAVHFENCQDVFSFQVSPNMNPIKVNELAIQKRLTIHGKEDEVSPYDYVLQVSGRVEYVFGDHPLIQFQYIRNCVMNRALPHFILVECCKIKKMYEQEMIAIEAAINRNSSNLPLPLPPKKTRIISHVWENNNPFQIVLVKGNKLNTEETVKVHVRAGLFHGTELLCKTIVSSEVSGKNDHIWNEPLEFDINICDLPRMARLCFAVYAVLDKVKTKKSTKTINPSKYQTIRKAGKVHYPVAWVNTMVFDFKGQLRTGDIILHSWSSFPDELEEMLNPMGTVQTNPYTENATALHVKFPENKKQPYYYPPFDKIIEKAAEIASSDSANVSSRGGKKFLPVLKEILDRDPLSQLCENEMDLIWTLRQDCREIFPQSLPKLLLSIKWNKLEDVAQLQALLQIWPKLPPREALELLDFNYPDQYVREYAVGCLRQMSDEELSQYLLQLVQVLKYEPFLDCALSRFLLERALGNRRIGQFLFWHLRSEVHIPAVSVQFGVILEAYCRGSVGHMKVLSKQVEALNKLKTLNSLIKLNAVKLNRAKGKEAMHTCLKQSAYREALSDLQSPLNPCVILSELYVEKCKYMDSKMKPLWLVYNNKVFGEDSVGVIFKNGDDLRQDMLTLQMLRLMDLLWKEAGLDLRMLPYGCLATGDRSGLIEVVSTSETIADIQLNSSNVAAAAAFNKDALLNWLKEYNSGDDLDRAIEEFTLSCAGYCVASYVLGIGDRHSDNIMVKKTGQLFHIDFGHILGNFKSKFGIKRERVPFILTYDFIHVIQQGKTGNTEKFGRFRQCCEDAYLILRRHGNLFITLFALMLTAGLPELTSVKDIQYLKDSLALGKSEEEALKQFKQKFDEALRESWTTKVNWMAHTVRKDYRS
T2 sequence (P27986 whole entry partner, species assumed): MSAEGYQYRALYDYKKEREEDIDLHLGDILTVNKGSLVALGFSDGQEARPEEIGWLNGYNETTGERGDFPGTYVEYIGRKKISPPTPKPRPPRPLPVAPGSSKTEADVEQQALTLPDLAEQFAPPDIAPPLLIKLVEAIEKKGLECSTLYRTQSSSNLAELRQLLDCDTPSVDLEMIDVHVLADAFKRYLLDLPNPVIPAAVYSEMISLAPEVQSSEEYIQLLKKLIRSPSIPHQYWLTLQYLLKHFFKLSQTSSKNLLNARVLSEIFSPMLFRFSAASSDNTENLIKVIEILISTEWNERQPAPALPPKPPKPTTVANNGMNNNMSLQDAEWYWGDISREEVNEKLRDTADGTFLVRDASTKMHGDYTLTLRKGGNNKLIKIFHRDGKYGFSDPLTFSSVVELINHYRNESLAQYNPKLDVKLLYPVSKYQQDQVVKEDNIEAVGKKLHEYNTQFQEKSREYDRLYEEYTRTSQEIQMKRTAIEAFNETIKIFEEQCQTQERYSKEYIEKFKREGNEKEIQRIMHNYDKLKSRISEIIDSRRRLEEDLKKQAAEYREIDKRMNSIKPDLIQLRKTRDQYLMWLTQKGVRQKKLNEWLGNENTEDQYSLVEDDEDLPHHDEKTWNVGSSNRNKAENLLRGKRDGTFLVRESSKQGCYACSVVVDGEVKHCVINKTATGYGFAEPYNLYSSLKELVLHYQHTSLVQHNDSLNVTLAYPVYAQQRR
T4 sequence (O00329 whole entry, species assumed): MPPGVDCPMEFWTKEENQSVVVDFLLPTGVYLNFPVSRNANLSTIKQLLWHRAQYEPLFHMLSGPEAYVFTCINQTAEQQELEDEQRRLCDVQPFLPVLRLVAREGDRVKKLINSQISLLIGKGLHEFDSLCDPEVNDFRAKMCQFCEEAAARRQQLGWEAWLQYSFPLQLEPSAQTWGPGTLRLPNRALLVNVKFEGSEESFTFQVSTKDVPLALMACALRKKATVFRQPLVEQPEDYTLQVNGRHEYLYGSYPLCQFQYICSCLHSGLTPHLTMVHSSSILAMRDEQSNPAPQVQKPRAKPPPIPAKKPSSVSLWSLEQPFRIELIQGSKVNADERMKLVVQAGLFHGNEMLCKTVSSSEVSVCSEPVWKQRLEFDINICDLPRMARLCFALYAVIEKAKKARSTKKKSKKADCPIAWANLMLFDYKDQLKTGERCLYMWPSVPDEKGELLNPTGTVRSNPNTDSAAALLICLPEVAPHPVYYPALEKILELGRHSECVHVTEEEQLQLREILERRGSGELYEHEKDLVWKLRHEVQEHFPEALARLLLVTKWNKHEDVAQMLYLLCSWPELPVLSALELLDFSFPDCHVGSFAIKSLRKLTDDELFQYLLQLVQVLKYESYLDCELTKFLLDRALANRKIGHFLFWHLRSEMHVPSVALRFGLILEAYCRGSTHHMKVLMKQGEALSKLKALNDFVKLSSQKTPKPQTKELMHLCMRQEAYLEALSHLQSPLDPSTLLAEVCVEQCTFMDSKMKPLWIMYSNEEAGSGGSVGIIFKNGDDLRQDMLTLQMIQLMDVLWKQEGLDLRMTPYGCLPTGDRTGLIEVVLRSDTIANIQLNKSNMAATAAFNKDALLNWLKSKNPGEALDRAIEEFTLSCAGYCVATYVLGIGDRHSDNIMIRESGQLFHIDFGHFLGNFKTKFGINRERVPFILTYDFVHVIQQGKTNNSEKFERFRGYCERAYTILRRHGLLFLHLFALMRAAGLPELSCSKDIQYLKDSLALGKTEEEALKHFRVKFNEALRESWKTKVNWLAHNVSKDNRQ
T4 sequence (P27986 whole entry partner, species assumed): as the sequence (P27986 whole entry partner, species assumed) above
T5 sequence (P48736 whole entry, species assumed): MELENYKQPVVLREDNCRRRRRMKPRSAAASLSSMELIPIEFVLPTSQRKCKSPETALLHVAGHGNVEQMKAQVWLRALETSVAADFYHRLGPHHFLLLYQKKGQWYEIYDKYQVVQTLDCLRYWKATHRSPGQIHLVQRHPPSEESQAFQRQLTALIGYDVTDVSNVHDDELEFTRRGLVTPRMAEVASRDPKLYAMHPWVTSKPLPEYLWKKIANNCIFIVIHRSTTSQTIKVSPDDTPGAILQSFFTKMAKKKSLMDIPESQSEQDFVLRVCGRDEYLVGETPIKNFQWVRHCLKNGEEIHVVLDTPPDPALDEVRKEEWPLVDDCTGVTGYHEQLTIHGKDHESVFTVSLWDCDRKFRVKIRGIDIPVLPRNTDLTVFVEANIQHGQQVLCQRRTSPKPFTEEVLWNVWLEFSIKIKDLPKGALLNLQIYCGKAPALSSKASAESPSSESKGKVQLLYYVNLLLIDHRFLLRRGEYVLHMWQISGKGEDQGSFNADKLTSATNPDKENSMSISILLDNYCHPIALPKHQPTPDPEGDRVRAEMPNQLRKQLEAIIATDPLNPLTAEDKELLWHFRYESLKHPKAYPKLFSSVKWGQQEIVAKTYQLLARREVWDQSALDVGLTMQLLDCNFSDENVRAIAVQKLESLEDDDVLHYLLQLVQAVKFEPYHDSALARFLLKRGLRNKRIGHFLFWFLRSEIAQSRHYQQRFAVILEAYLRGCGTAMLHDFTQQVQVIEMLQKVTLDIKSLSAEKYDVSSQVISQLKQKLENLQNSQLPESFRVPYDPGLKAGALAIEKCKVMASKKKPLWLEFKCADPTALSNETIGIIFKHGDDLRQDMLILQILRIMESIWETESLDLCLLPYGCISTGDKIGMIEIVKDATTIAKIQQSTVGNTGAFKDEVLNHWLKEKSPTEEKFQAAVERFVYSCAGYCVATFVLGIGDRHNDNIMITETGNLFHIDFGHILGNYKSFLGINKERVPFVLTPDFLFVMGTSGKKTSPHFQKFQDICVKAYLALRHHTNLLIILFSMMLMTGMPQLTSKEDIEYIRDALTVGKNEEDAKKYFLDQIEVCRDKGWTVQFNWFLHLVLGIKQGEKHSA
T3 sequence (O00329 whole entry): as the sequence (O00329 whole entry, species assumed) above
T3 sequence (P27986 whole entry partner): as the sequence (P27986 whole entry partner, species assumed) above

`CC(C)(Cc1ccc(Br)cc1)Nc1nc(N2CCOCC2)nc(-n2c(C(F)F)nc3ccccc32)n1` [Compound A24, N-(1-(4-bromophenyl)-2-methylpropan-2-yl)-4-(2-(difluoromethyl)-1H-benzo[d]imidazol-1-yl)-6-morpholino-1,3,5-triazin-2-amine] was tested, and the IC50 (PI3K alpha) was > 500 nM, the IC50 (PI3K beta) was > 500 nM and the α/β ratio (PI3K beta) was “D’”. For the same compound, the IC50 (PI3Kδ) was ≤ 100 nM, the IC50 (PI3K delta) was 100 to 200 nM and the α/δ ratio (PI3K delta) was “D’”. For the same compound, the β/δ ratio (PI3K delta) was “C’”, the γ/δ ratio (PI3K delta) was “D’” and the IC50 (PI3K gamma) was 200 to 500 nM. For the same compound, the IC50 (mTOR) was > 500 nM.

`CC(C)(Cc1ccc(Cl)cc1)Nc1nc(N2CCOCC2)nc(-n2c(C(F)F)nc3ccccc32)n1` [Compound A23, N-(1-(4-chlorophenyl)-2-methylpropan-2-yl)-4-(2-(difluoromethyl)-1H-benzo[d]imidazol-1-yl)-6-morpholino-1,3,5-triazin-2-amine] was tested, and the IC50 (PI3K alpha) was > 500 nM, the IC50 (PI3K beta) was 200 to 500 nM and the α/β ratio (PI3K beta) was “D’”. For the same compound, the IC50 (PI3Kδ) was ≤ 100 nM, the IC50 (PI3K delta) was ≤ 100 nM and the α/δ ratio (PI3K delta) was “B’”. For the same compound, the β/δ ratio (PI3K delta) was “D’”, the γ/δ ratio (PI3K delta) was “C’” and the IC50 (PI3K gamma) was 200 to 500 nM. The IC50 (mTOR) was > 500 nM.
